“And” between values parts separate entries of the source, which are not always exact repeats. Equal entries are not always repeated.
Tested on: 885512-296-R-J2-PDC complex spheroid growth, % test/control
Assay: Anticancer human tumor 885512-296-R-J2-PDC patient-derived breast carcinoma cell line growth inhibition [AhR]
Conditions: for viability, T/C: stronger effect = lower value
Text: Multicellular complex tumor spheroid response to aryl hydrocarbon receptor antagonists in combination with a variety of drugs and investigational agents in selected tumor cell lines
The current study was undertaken to assess response to aryl hydrocarbon receptor antagonists in combination with standard-of-care drugs and investigational agents in solid tumor complex spheroid models. Complex spheroids include a stromal component modeled by human endothelial cells (HUVEC) and fibroblasts modeled by human mesenchymal stem cells (MSCs). The concentration ranges selected for each drug and investigational agent were based upon clinically achievable concentrations if the clinical Cmax of the agent was known.
Compounds. The drugs and investigational agents: BAY 2416964 (NSC825713), GNF351 (NSC835774), CH-223191 (NSC835775), CPI-455 (NSC825282), aza-TdCyd (NSC777586), decitabine (NSC127716), belinostat (NSC758774), entinostat (NSC756642), pevonedistat (NSC761192), tazemetostat (NSC777109), talazoparib (NSC765396), olaparib (NSC753686), selinexor (NSC780203), nedisertib (M3814, NSC802822), bortezomib (NSC756655), venetoclax (NSC766270), doxorubicin (NSC123127), elimusertib (BAY189344, NSC800525), ceralasertib (AZD6738, NSC777638), TAK-243 (NSC785004), alisertib (NSC759677), etoposide (NSC141540), topotecan (NSC609699), eribulin (NSC707389), gemcitabine (NSC613327), carboplatin (NSC241240), cisplatin (NSC119875), and SN-38 (NSC673596) were obtained from the National Cancer Institute (NCI) Developmental Therapeutics Program Chemical Repository (32). The FDA-approved anticancer drug set is available from the Developmental Therapeutics Program at https://dtp.cancer.gov/organization/dscb/obtaining/available plates.htm. […] The stock solutions were prepared in dimethyl sulfoxide (DMSO, Sigma-Aldrich, St. Louis, MO, cat. D2650), except for the platinum compounds which were prepared in saline (Quality Biological, Gaithersburg, MD, cat. 114-055-101), at 800-fold the tested concentration and stored at -70 degrees C prior to their use. All drugs and investigational agents were tested over a range starting from a high concentration at or near the clinical Cmax and decreasing in half-log increments. If the clinical Cmax for an agent had not been determined, the highest concentration tested was 10 microM (Table 1).
Cell Culture. All cells were maintained in an incubator at 37 degrees C and 5% CO2 with 95% humidity. The PDC lines were cultured according to standard operating procedures established by the NCI PDMR (https://pdmr.cancer.gov). Briefly, all PDCs were thawed and cultured in Matrigel-coated flasks prepared with a working solution of 1X Ham's F-12 nutrient mix, without supplementation (Invitrogen, Waltham, MA, cat. 11765054), 100 U/mL penicillin-streptomycin (Invitrogen, cat. 15140122), and 2.5% Matrigel (Corning Inc., Corning, NY, cat. 354248) for the first three passages. All PDCs were cultured in complete DMEM/F-12 media containing advanced DMEM/F-12 (Invitrogen, cat. 12634028), 4.9% defined fetal bovine serum, heat inactivated (HyClone Laboratories Inc., Logan, UT, cat. SH30070.03HI), 389 ng/mL hydrocortisone (Sigma-Aldrich, cat. H4001), 9.7 ng/mL human EGF recombinant protein (Invitrogen, cat. PHG0313), 23.4 microg/mL adenine (Sigma-Aldrich, cat. A2786), 97.3 U/mL penicillin-streptomycin (Invitrogen, cat. 15140122), 1.9 mM L-glutamine (Invitrogen, cat. 25030081), and 9.7 microM Y-27632 dihydrochloride (Tocris Bioscience, Bristol, United Kingdom, cat. 1254). The PDCs were cultured in complete DMEM/F12 media without 10 microM Y-27632 dihydrochloride for at least two passages prior to the screen. The established cell lines NCI-H1341 and […] were cultured in DMEM/F-12, HEPES (Invitrogen, cat. 11330032), 5% defined fetal bovine serum (HyClone Laboratories Inc., cat. SH30070.03), ITS premix universal culture supplement [insulin (5 microg/mL), transferrin (5 microg/mL), and selenious acid (5 ng/mL)] […]

[1] = curve of first compound, second compound 0.1 µM
[2] = curve of first compound, second compound 0.316 µM
[3] = curve of first compound, second compound 1 µM
[4] = curve of first compound, second compound 3.16 µM
[5] = curve of first compound, second compound 10 µM
[6] = second compound 0.1 µM, first compound 0.0316 µM
[7] = second compound 0.1 µM, first compound 0.1 µM
[8] = second compound 0.1 µM, first compound 0.316 µM
[9] = second compound 0.1 µM, first compound 1 µM
[10] = second compound 0.1 µM, first compound 3.16 µM
[11] = second compound 0.1 µM, first compound 10 µM
[12] = second compound 0.316 µM, first compound 0.0316 µM
[13] = second compound 0.316 µM, first compound 0.1 µM
[14] = second compound 0.316 µM, first compound 0.316 µM
[15] = second compound 0.316 µM, first compound 1 µM
[16] = second compound 0.316 µM, first compound 3.16 µM
[17] = second compound 0.316 µM, first compound 10 µM
[18] = second compound 1 µM, first compound 0.0316 µM
[19] = second compound 1 µM, first compound 0.1 µM
[20] = second compound 1 µM, first compound 0.316 µM
[21] = second compound 1 µM, first compound 1 µM
[22] = second compound 1 µM, first compound 3.16 µM
[23] = second compound 1 µM, first compound 10 µM
[24] = second compound 3.16 µM, first compound 0.0316 µM
[25] = second compound 3.16 µM, first compound 0.1 µM
[26] = second compound 3.16 µM, first compound 0.316 µM
[27] = second compound 3.16 µM, first compound 1 µM
[28] = second compound 3.16 µM, first compound 3.16 µM
[29] = second compound 3.16 µM, first compound 10 µM
[30] = second compound 10 µM, first compound 0.0316 µM
[31] = second compound 10 µM, first compound 0.1 µM
[32] = second compound 10 µM, first compound 0.316 µM
[33] = second compound 10 µM, first compound 1 µM
[34] = second compound 10 µM, first compound 3.16 µM
[35] = second compound 10 µM, first compound 10 µM
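Note: spheroids exposed to compounds for seven days.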

SMILES: CC(C)CC(NC(=O)C(Cc1ccccc1)NC(=O)c1cnccn1)B(O)O (stereo unspecified) + CC(CO)NC(=O)c1cc(-c2ccc(Cl)cc2)nn(-c2cnn(C)c2)c1=O
- IC50 [1]: 5.22 nM
- IC50 [2]: 5.67 nM
- IC50 [3]: 5.45 nM
- IC50 [4]: 5.42 nM
- IC50 [5]: 5.75 nM
- viability, T/C (second compound 0.1 µM, first compound 0.000949 µM): 97%
- viability, T/C (second compound 0.1 µM, first compound 0.003 µM): 86.5%
- viability, T/C (second compound 0.1 µM, first compound 0.00949 µM): 10.7%
- viability, T/C (second compound 0.1 µM, first compound 0.03 µM): 0.69%
- viability, T/C (second compound 0.1 µM, first compound 0.0949 µM): 0.12%
- viability, T/C (second compound 0.1 µM, first compound 0.3 µM): 0.12%
- viability, T/C (second compound 0.316 µM, first compound 0.000949 µM): 96.1%
- viability, T/C (second compound 0.316 µM, first compound 0.003 µM): 99.3%
- viability, T/C (second compound 0.316 µM, first compound 0.00949 µM): 11.2%
- viability, T/C (second compound 0.316 µM, first compound 0.03 µM): 0.78%
- viability, T/C (second compound 0.316 µM, first compound 0.0949 µM): 0.16%
- viability, T/C (second compound 0.316 µM, first compound 0.3 µM): 0.08%
- viability, T/C (second compound 1 µM, first compound 0.000949 µM): 98.4%
- viability, T/C (second compound 1 µM, first compound 0.003 µM): 94%
- viability, T/C (second compound 1 µM, first compound 0.00949 µM): 9.2%
- viability, T/C (second compound 1 µM, first compound 0.03 µM): 0.72%
- viability, T/C (second compound 1 µM, first compound 0.0949 µM): 0.26%
- viability, T/C (second compound 1 µM, first compound 0.3 µM): 0.12%
- viability, T/C (second compound 3.16 µM, first compound 0.000949 µM): 89.4%
- viability, T/C (second compound 3.16 µM, first compound 0.003 µM): 91.6%
- viability, T/C (second compound 3.16 µM, first compound 0.00949 µM): 11.7%
- viability, T/C (second compound 3.16 µM, first compound 0.03 µM): 0.76%
- viability, T/C (second compound 3.16 µM, first compound 0.0949 µM): 0.16%
- viability, T/C (second compound 3.16 µM, first compound 0.3 µM): 0.1%
- viability, T/C (second compound 10 µM, first compound 0.000949 µM): 91.6%
- viability, T/C (second compound 10 µM, first compound 0.003 µM): 113%
- viability, T/C (second compound 10 µM, first compound 0.00949 µM): 9.64%
- viability, T/C (second compound 10 µM, first compound 0.03 µM): 0.68%
- viability, T/C (second compound 10 µM, first compound 0.0949 µM): 0.18%
- viability, T/C (second compound 10 µM, first compound 0.3 µM): 0.14%

SMILES: COc1cc(C2c3cc4c(cc3C(OC3OC5COC(C)OC5C(O)C3O)C3COC(=O)C23)OCO4)cc(OC)c1O (stereo unspecified) + CC(CO)NC(=O)c1cc(-c2ccc(Cl)cc2)nn(-c2cnn(C)c2)c1=O
- IC50 [1]: 771 nM
- IC50 [2]: 694 nM
- IC50 [3]: 671 nM
- IC50 [4]: 490 nM
- IC50 [5]: 310 nM
- viability, T/C [6]: 102%
- viability, T/C [7]: 106%
- viability, T/C [8]: 85.9%
- viability, T/C [9]: 39.8%
- viability, T/C [10]: 10.2%
- viability, T/C [11]: 7.1%
- viability, T/C [12]: 96.5%
- viability, T/C [13]: 89.2%
- viability, T/C [14]: 74.8%
- viability, T/C [15]: 39.9%
- viability, T/C [16]: 9.03%
- viability, T/C [17]: 7.53%
- viability, T/C [18]: 101%
- viability, T/C [19]: 103%
- viability, T/C [20]: 81.6%
- viability, T/C [21]: 33.3%
- viability, T/C [22]: 10.9%
- viability, T/C [23]: 8.44%
- viability, T/C [24]: 110%
- viability, T/C [25]: 97.6%
- viability, T/C [26]: 68.4%
- viability, T/C [27]: 20.8%
- viability, T/C [28]: 12.2%
- viability, T/C [29]: 7.27%
- viability, T/C [30]: 91.5%
- viability, T/C [31]: 89.1%
- viability, T/C [32]: 48.7%
- viability, T/C [33]: 17.7%
- viability, T/C [34]: 13.8%
- viability, T/C [35]: 9.69%

SMILES: Nc1ccn(C2OC(CO)C(O)C2(F)F)c(=O)n1 (stereo unspecified) + CC(CO)NC(=O)c1cc(-c2ccc(Cl)cc2)nn(-c2cnn(C)c2)c1=O
- IC50 [1]: < 31.6 nM
- IC50 [2]: < 31.6 nM
- IC50 [3]: < 31.6 nM
- IC50 [4]: < 31.6 nM
- IC50 [5]: < 31.6 nM
- viability, T/C [6]: 2.76%
- viability, T/C [7]: 3%
- viability, T/C [8]: 3.87%
- viability, T/C [9]: 4.14%
- viability, T/C [10]: 4.54%
- viability, T/C [11]: 3.83%
- viability, T/C [12]: 3.69%
- viability, T/C [13]: 3.44%
- viability, T/C [14]: 2.94%
- viability, T/C [15]: 4.15%
- viability, T/C [16]: 4.75%
- viability, T/C [17]: 4.18%
- viability, T/C [18]: 2.96%
- viability, T/C [19]: 3.26%
- viability, T/C [20]: 3.72%
- viability, T/C [21]: 3.82%
- viability, T/C [22]: 5.38%
- viability, T/C [23]: 4.22%
- viability, T/C [24]: 3.18%
- viability, T/C [25]: 2.97%
- viability, T/C [26]: 3.84%
- viability, T/C [27]: 3.9%
- viability, T/C [28]: 4.31%
- viability, T/C [29]: 4.48%
- viability, T/C [30]: 6.37%
- viability, T/C [31]: 5.16%
- viability, T/C [32]: 4.54%
- viability, T/C [33]: 3.78%
- viability, T/C [34]: 4.11%
- viability, T/C [35]: 4.01%

SMILES: CCN(c1cc(-c2ccc(CN3CCOCC3)cc2)cc(C(=O)NCc2c(C)cc(C)[nH]c2=O)c1C)C1CCOCC1
- viability, T/C (compound 0.00949 µM): 99.4% and 113% and 105%
- viability, T/C (compound 0.03 µM): 116% and 94.8% and 94.7%
- viability, T/C (compound 0.0949 µM): 93% and 86.7% and 98.8%
- viability, T/C (compound 0.3 µM): 89.7% and 91.3% and 78.9%
- viability, T/C (compound 0.949 µM): 86.7% and 77.8% and 76.2%
- viability, T/C (compound 3 µM): 72.8% and 67.7% and 80.9%
- IC50 (curve of compound): > 3000 nM

SMILES: Cc1cncc(-c2nc(NCCc3c[nH]c4ccccc34)c3ncn(C(C)C)c3n2)c1
- viability, T/C (compound 0.1 µM): 105% [middle of 20 runs]
- viability, T/C (compound 3.16 µM): 60% [middle of 20 runs]
- viability, T/C (compound 10 µM): 19.6% [middle of 20 runs]
- IC50 (compound alone, run of 08/16/2022): 4.14 µM [middle of 24 runs]

From PubChem BioAssay AID1919006 (Molecular Pharmacology Branch, DTP, NCI, 2023)
